Data published in the NIST ThermoML archive (doi:10.1016/j.fluid.2015.07.026).
± gives the expanded uncertainty stated by the source.

Details: Liquid, Pendant drop shape

[Ar] [argon] + O
interfacial tension [mN/m]
Details	2000 kPa	5000 kPa	10000 kPa	15000 kPa	20000 kPa	25000 kPa	30000 kPa	40000 kPa	50000 kPa
298.01 K	71.6 ± 2.3	69.7 ± 2.2	67.4 ± 2.2	65.3 ± 2.1	63.3 ± 2	61.9 ± 2	60.7 ± 1.9	58.6 ± 1.9	57 ± 2
323.16 K	67.1 ± 2.1	65.7 ± 2.1	63.2 ± 2	61.1 ± 2	59.4 ± 1.9	57.9 ± 1.9	56.5 ± 1.8	54.5 ± 1.7	53.3 ± 1.7
373.28 K	58.5 ± 1.9	57.2 ± 1.8	55.5 ± 1.8	53.9 ± 1.7	52.7 ± 1.7	51.6 ± 1.7	50.8 ± 1.6	49.3 ± 1.6	48.2 ± 1.5
448.07 K	43.1 ± 1.4	42.5 ± 1.4	41.3 ± 1.3	40.3 ± 1.3	39.5 ± 1.3	38.8 ± 1.2	38.3 ± 1.2	37.3 ± 1.2	36.6 ± 1.2
473.53 K	37.3 ± 1.2	36.5 ± 1.2	35.6 ± 1.1	34.8 ± 1.1	34.1 ± 1.1	33.7 ± 1.1	33.1 ± 1.1	32.9 ± 1.1	32.8 ± 1.1
